In patent publication US20160058754A1, “Nalmefene for Treatment of Patients with Anxiety Disorder” (H. LUNDBECK A/S, priority 2013, published 2016):

Columns and labels:
κ receptor = κ receptor (Homo sapiens, UniProt P41145); conditions: in vitro studies; cited from earlier work
[1] = system: patients with alcohol dependence; test: Clinical efficacy measured by POMS score (Studies 12014A, 12023A, 12013A); format: in vivo, human
Description: The term “POMS” is an abbreviation of “profile of mood states” and refers to a self-report inventory scale developed to assess the effect of e.g. new medication on mood states and mood changes. The scale measures six domains: Tension-Anxiety, Depression-Rejection, Anger-Hostility, Vigour-Activity, Fatigue-Inertia, and Confusion-Bewilderment. A total mood disturbance (TMD) score can be calculated. In general, a lower POMS score indicates a better mood state than a higher score except for vigour-activity, for which a higher POMS score indicates a better mood state. The scale has been described e.g. by McNair et al., Profile of mood states. San Diego, Calif.: Educational and Industrial Testing Service and by Nyenhios and Yamamoto, J. Clin. Psychology, (1999), Vol. 55(1): 79-86.
Assessment of POMs scores in Studies 12014A, 12023A and 12013A was used to evaluate the effect of nalmefene on mood states and mood changes throughout the study. […] Tables 5 and 7 indicate that patients with an anxiety disorder at baseline had higher POMS scores at baseline when compared to those patients without anxiety disorders. The change in POMS scores from baseline are illustrated in FIGS. 3-9. […] A remarkable improvement is seen over the weeks 8-20.
(§1) Another approach to identify patients with an anxiety disorder is by defining Anxiety Disorder at baseline as any ongoing medical history coded by the Medical Dictionary for Regulatory Activities (MedDRA) Preferred Term as ‘Acute Stress Disorder’, ‘Agoraphobia’, ‘Anxiety’, ‘Anxiety Disorder’, ‘Emotional Distress’, ‘Generalised Anxiety Disorder’, ‘Nervousness’, ‘Nosophobia’, ‘Obsessive-Compulsive Disorder’, ‘Panic Attack’, ‘Panic Disorder’, ‘Panic Disorder With Agoraphobia’, ‘Post-Traumatic Stress Disorder’, ‘Social Phobia’ and/or ‘Stress and Tension’. In examples 1 and 2 below patients classified with an anxiety disorder at baseline were selected based on said MedDRA terms.
Assessment of POMs scores in Studies 12014A, 12023A and 12013A was used to evaluate the effect of nalmefene on mood states and mood changes throughout the study. […]

rats [2] = test: Vogel test in rats; format: in vivo, rat; conditions: 0.01, 0.1 and 1 mg/kg s.c. 30 minutes before the test; 3-minute test; vs vehicle
Description: Pairing of water drinking with […] shock punishment will induce a conflict in water deprived rats and lead to less frequent water seeking behaviour. Pretreatment of rats with an anxiolytic will counteract the conflict and increase the frequency of water seeking. The test can be conducted as described in detail by Vogel et al., Psychopharmacology, (1971), 21: pp. 1-7. In brief, rats are adapted to the test chambers, a Plexiglas box, equipped with a grid floor made of stainless steel bars and a drinking bottle with tap water. After the adaptation period, the animals are deprived of water and then placed in the test chamber for free access to the drinking bottle for a short period. Afterwards, they are allowed a short free-drinking session in their home cage. After another water deprivation period, the rats are placed again in the test chamber and allowed to drink for a very short time (30 s); immediately afterwards, their drinking attempts are punished with an electric shock. […] The number of shocks accepted throughout a 5-min experimental session was recorded.
Nalmefene was tested as the sole active compound in the Vogel model in rats. […] The number of punished drinks was counted during a 3-minute test. Nalmefene was evaluated at 3 doses (0.01, 0.1 and 1 mg/kg), administered s.c. 30 minutes before the test, and compared with a vehicle control group.

rats [3] = test: Elevated plus maze test in rats; format: in vivo, rat; conditions: 0.01, 0.1 and 1 mg/kg s.c. 30 minutes before the test; 5 minutes; vs vehicle
Description: Rats have an aversion of open spaces and avoid them by confining movements to enclosed spaces or to the edges of a bounded space. Anxiolytic activity can be tested in a test setting consists of a plus-shaped apparatus with two open and two enclosed arms, each with an open roof, elevated 40-70 cm from the floor according to Pellow et al., J. Neurosci. Methods. (1985) August; 14(3):149-67. Pretreatment of rats with anxiolytic active compounds will increase in the proportion of time spent in the open arms (time in open arms/total time in open or closed arms), and an increase in the proportion of entries into the open arms (entries into open arms/total entries into open or closed arms). Total number of arm entries and number of closed-arm entries can be employed as measures of general activity.
Nalmefene was tested as the sole active compound in the elevated plus maze test in rats. A rat was placed in the centre of the plus-maze and left to explore for 5 minutes. The number of entries into the open and closed arms and the time spent on the open arms were recorded. The % of open arm entries (open arm entries/total arm entries×100) was calculated. Nalmefene was evaluated at 3 doses (0.01, 0.1 and 1 mg/kg), administered s.c. 30 minutes before the test, and compared with a vehicle control group.

δ receptor = δ receptor (Homo sapiens, UniProt P41143); conditions: in vitro studies; cited from earlier work
Sequence of δ receptor (P41143 whole entry): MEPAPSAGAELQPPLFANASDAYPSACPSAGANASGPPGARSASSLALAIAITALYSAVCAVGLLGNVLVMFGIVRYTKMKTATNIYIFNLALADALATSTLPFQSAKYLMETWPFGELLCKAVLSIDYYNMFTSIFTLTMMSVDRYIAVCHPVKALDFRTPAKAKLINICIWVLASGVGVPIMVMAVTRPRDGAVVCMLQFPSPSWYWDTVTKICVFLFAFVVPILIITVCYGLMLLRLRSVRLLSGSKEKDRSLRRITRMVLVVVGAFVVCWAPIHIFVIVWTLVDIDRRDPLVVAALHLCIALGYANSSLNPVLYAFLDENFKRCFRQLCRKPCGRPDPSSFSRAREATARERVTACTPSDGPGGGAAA

[4] = system: patients with alcohol dependence; test: Clinical efficacy on the reduction of alcohol consumption (Studies 12014A, 12023A, 12013A); format: in vivo, human
Protocol: The efficacy of nalmefene in the reduction of alcohol consumption in patients with alcohol dependence (DSM-IV) has been evaluated in studies 12014A, 12023A and 12013A. The efficacy of nalmefene was measured using two co-primary endpoints: the change from baseline in the monthly number of heavy drinking days (HDDs) and the change from baseline in the average daily total alcohol consumption (TAC).
as §1
The efficacy of nalmefene on the reduction of alcohol consumption in patients with alcohol dependence (DSM-IV) was evaluated in two efficacy studies (Study 12014A and Study 12023A) and a safety study (Study 12013A). All studies were multi-national, multi-site, randomised, double blind, two parallel group, placebo controlled studies. The efficacy was evaluated over 24 weeks of treatment. The studies included outpatients, aged ≧18 years, with a primary diagnosis of alcohol dependence. […] Patients with psychiatric co-morbidity (that is, patients who used stable doses of antipsychotics and/or certain antidepressants) were also included unless the treatment of the psychiatric comorbidity had to take priority over treatment of the drinking problem, or was likely to interfere with study treatment or impairs treatment compliance.
The studies included in total 1997 patients, 1173 of whom were treated with nalmefene 18 mg in an as-needed dosing regimen. A motivational and adherence enhancing intervention was administered to all the patients to support the patients in changing their behavior and to enhance adherence to treatment.
The efficacy of nalmefene on the reduction of alcohol consumption was measured using two co-primary endpoints: the change in the monthly number of heavy drinking days (HDDs) and the change in the average daily total alcohol consumption (TAC). A HDD was defined as a day with a consumption ≧60 g alcohol for men and ≧40 g for women.

[5] = system: patients with alcohol dependence; test: Clinical efficacy measured by SF-36 Mental Component Summary (FAS, OC); format: in vivo, human; conditions: for SF-36 Mental Component Summary, Change to Week 12, Mean ± SE / SF-36 Mental Component Summary, Change to Week 24, Mean ± SE: pooled studies, FAS, OC
Description: Another method for measuring a patient's health status is by the SF-36 which is a patient-reported outcome developed as a general measure of perceived health status. The mental component summary score focuses on mental aspects of health related quality of life. Higher scores correspond to better health status or well-being.

Mice (NMRI) = test: Marble burying test in mouse; format: in vivo; conditions: 0.01 or 1 mg/kg s.c.
Protocol: The method, which detects anxiolytic/tranquillizing activity, follows that described by Broekkamp et al (Eur. J. Pharmacol., 126, 223-229, 1986). Mice exposed to novel objects (marbles) will bury them in the sawdust floor covering. Anxiolytics decrease the number of marbles buried at non-sedative doses.
Nalmefene was tested in the marble burying model as the sole active compound. Mice (NMRI) were individually placed in transparent plastic cages (33×21×18 cm) with 5 cm of sawdust on the floor and 25 marbles grouped in the centre of the cage. The cage was covered with an inverted plastic cage. Each test cage, together with the marbles, was impregnated with mouse odor before-hand by leaving 10 mice in the cage for 15 minutes. These mice then played no further role in the experiment.
The number of marbles covered by sawdust (⅔ or more) was counted at the end of a 30 minute test. 12 mice were studied per group. The test was performed blind. Nalmefene was evaluated at 3 doses (0.01, 0.1 and 1 mg/kg), administered s.c. 30 minutes before the test, and compared with a vehicle control group. […]
Data with the test substance were analysed by comparing treated groups with vehicle control using Kruskall-Wallis test followed by Mann-Whitney U tests. Data with the reference substance were analysed using Mann-Whitney U tests. […]

μ receptor = μ receptor (Homo sapiens, UniProt P35372); conditions: in vitro studies; cited from earlier work
Sequence of μ receptor (P35372 whole entry): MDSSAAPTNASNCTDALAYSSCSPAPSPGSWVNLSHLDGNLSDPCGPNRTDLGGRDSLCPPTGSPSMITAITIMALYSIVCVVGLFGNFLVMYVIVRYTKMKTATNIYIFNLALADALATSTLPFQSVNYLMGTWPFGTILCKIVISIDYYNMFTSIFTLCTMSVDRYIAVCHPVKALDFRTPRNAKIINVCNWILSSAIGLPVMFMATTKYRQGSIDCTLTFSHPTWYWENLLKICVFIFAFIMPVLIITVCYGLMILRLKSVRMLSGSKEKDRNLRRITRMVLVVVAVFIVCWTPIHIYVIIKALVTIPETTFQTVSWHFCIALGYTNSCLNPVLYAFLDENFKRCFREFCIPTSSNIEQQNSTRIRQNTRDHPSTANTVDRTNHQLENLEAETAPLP

[6] = total patient group, nalmefene 18 mg as-needed vs placebo
[7] = no anxiety disorder at baseline

Sequence of κ receptor (P41145 whole entry): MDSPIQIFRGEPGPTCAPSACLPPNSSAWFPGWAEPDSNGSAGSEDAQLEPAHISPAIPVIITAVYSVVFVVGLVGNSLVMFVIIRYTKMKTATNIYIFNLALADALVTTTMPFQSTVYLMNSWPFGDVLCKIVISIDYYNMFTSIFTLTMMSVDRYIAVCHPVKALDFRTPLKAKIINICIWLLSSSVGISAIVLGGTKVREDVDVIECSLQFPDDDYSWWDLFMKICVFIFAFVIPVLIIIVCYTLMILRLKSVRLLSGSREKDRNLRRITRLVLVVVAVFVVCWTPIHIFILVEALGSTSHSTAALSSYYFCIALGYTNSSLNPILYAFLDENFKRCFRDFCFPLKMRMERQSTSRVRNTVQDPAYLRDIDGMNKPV

C=C1CC[C@@]2(O)[C@H]3Cc4ccc(O)c5c4[C@@]2(CCN3CC2CC2)[C@H]1O5 [Nalmefene, 17-(cyclopropylmethyl)-4,5-alpha-epoxy-6-methylenemorphinan-3,14-diol]
activity at the κ receptor (κ receptor): partial agonist activity
POMS score, nalmefene vs placebo ([1]; patients with an anxiety disorder at baseline, end of the study): better POMS score
POMS total mood disturbance, tension-anxiety, depression-rejection, anger-hostility and confusion, nalmefene vs placebo ([1]; patients with an anxiety disorder at baseline, weeks 4-24): better POMS scores
POMS score, nalmefene vs placebo ([1]; patients without an anxiety disorder at baseline, throughout the study): no pronounced difference between nalmefene and placebo
number of punished drinks (rats [2]): No significant effect
open and closed arm entries, time spent on the open arms, % of open arm entries (rats [3]): No significant effect
activity at the δ receptor (δ receptor): antagonist activity
alcohol consumption ([4]; patients with an anxiety disorder at baseline): significally reduced
reducing TAC (change from baseline in average daily total alcohol consumption) [4, 6]: superior to placebo
reducing the number of HDDs (change from baseline in monthly number of heavy drinking days) [4, 6]: superior to placebo
difference between nalmefene and placebo measured in HDDs and TAC ([4]; week 24, patients with an anxiety disorder at baseline compared with patients without): merely at the same level
difference between nalmefene and placebo in the change from baseline in SF-36 mental component summary score ([5]; Week 12 and Week 24, patients with an anxiety disorder at baseline compared with patients without): more pronounced
SF-36 Mental Component Summary, Change to Week 12, Mean ± SE ([5]; anxiety disorder at baseline): 6.23 ± 1.47
SF-36 Mental Component Summary, Change to Week 24, Mean ± SE ([5]; anxiety disorder at baseline): 7.56 ± 2.24
SF-36 Mental Component Summary, Change to Week 12, Mean ± SE [5, 7]: 4.77 ± 0.37
SF-36 Mental Component Summary, Change to Week 24, Mean ± SE [5, 7]: 5.65 ± 0.43
effect on number of marbles covered by sawdust compared with vehicle controls (Mice (NMRI)): no significant effects
activity at the μ receptor (μ receptor): antagonist activity
